As usually defined, the IC50 is the concentration at which inhibition is half-maximal.

12 compounds from patent publication US12065436B2, “Cardiac sarcomere inhibitors” (Cytokinetics, Inc., priority 2018, dated 2024) can be followed below.

In the experiment the target is bovine cardiac myofibrils (full-length cardiac myosin ATPase in the native sarcomere) (Bos taurus (Bovine), UniProt Q9BE39). Put plainly: Skinned bovine cardiac myofibril ATPase assay (PK/LDH-coupled). It is filed as biochemical. The following applies: Ca2+ activating to 75% of maximal rate; for CDMF75 IC15: concentration giving 15% inhibition; for IC50: read-out: CDMF75 IC50. An outline of the steps: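 Inhibition of steady-state ATPase read at 340 nm through a PK/LDH-coupled NADH system (0.5 mM NADH, 1.5 mM PEP). Detergent-skinned bovine cardiac myofibrils, 1 mg/mL, were tested at pH 6.8 in PIPES/MgCl2 with 50 μM ATP and calcium adjusted to give pCa50 or pCa75 activation.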
bovine cardiac myofibrils (full-length cardiac myosin ATPase in the native sarcomere), sequence (Q9BE39 whole entry): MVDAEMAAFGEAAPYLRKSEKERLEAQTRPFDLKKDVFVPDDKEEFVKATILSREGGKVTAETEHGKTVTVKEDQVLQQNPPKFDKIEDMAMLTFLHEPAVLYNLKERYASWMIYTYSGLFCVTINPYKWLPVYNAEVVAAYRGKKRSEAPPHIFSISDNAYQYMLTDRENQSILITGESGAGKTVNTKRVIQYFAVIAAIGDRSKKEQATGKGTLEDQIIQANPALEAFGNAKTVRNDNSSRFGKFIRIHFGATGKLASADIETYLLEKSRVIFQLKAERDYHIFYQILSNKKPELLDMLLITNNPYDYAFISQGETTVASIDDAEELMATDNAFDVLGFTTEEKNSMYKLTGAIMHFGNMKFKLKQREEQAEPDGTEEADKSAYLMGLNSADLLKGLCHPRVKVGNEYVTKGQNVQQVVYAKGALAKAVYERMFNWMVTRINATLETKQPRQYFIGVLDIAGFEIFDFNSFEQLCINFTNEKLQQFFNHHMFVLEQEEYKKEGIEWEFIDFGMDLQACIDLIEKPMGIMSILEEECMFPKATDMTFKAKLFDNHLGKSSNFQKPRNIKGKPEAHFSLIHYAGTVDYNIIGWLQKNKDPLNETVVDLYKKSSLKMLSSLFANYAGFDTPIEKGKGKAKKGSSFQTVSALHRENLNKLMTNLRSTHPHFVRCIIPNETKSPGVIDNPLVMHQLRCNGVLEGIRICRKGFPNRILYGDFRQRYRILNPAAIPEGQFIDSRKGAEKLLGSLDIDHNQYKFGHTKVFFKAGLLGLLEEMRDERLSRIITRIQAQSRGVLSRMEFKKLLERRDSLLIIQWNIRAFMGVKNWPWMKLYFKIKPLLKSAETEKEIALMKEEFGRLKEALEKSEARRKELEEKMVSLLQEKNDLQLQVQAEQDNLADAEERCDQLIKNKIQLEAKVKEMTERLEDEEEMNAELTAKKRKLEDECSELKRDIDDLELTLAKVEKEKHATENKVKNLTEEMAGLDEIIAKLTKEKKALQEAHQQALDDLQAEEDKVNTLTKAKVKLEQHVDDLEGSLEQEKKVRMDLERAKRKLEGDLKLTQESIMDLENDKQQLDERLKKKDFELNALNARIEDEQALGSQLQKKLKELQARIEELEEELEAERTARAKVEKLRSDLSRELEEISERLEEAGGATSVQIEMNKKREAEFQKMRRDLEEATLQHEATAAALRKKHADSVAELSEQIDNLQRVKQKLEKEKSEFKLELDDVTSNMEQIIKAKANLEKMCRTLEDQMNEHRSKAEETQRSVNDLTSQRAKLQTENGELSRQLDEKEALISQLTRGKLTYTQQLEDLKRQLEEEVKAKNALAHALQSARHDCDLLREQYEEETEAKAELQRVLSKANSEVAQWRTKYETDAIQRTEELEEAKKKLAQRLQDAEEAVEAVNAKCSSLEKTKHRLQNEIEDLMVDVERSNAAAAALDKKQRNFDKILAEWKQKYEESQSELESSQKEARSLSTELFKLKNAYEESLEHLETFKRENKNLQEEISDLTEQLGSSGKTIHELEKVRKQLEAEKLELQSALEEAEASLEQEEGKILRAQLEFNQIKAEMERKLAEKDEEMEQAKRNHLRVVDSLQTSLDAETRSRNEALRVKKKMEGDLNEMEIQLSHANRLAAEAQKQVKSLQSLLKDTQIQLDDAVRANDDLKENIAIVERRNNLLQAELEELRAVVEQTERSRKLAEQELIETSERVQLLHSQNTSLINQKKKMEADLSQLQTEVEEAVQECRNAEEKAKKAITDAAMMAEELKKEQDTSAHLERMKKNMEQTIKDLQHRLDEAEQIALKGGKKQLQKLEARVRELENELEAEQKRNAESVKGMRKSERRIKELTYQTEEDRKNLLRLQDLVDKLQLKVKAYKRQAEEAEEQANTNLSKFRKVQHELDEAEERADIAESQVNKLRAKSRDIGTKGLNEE
bovine cardiac myofibrils (full-length cardiac myosin ATPase in the native sarcomere), sequence (P85100 whole entry partner): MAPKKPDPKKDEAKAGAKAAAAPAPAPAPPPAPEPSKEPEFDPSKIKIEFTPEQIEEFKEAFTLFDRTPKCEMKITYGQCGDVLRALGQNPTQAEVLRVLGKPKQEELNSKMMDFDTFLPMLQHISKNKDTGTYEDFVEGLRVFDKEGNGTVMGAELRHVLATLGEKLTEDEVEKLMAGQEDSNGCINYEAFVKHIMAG
bovine cardiac myofibrils (full-length cardiac myosin ATPase in the native sarcomere), sequence (Q3SZE5 whole entry partner): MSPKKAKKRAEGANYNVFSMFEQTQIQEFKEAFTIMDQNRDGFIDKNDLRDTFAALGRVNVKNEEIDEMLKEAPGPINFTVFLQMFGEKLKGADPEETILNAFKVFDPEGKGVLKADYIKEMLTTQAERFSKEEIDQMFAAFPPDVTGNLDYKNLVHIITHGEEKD

For `CCc1nc(-c2ccc3c(c2)CC[C@H]3NC(=O)c2cccc(CO)c2F)no1` [Compound 654, (R)-N-(5-(5-ethyl-1,2,4-oxadiazol-3-yl)-2,3-dihydro-1H-inden-1-yl)-2-fluoro-3-(hydroxymethyl)benzamide], the “CDMF75 IC15” value is 0.6 µM and the half-maximal inhibitory concentration (IC50) turned out to be 2.2 µM.

Consider `CCc1nc(-c2ccc3c(c2)CC[C@H]3NC(=O)c2nnn(Cc3ccccc3)n2)no1` [Compound 501, (R)-2-benzyl-N-(5-(5-ethyl-1,2,4-oxadiazol-3-yl)-2,3-dihydro-1H-inden-1-yl)-2H-tetrazole-5-carboxamide], for which the “CDMF75 IC15” value amounted to 0.3 µM and the IC50 was 1.1 µM.

Take `Cc1cc(-c2ccc3c(c2)OC[C@H]3NC(=O)c2ocnc2C)no1` [Compound 429, (S)-4-methyl-N-(6-(5-methylisoxazol-3-yl)-2,3-dihydrobenzofuran-3-yl)oxazole-5-carboxamide]: the “CDMF75 IC15” value was 0.5 µM and the IC50 was 1.5 µM.

Consider `CCc1nc(-c2ccc3c(c2)CC[C@H]3NC(=O)c2nn[nH]n2)no1` [Compound 502, (R)-N-(5-(5-ethyl-1,2,4-oxadiazol-3-yl)-2,3-dihydro-1H-inden-1-yl)-2H-tetrazole-5-carboxamide], for which the “CDMF75 IC15” value is 2.0 µM and the IC50 amounted to 8 µM.

As for `CO[C@@H](C)c1nc(-c2ccc3c(c2)CC[C@H]3NC(=O)c2oncc2C)no1` [Compound 126, N-((R)-5-(5-((S)-1-methoxyethyl)-1,2,4-oxadiazol-3-yl)-2,3-dihydro-1H-inden-1-yl)-4-methylisoxazole-5-carboxamide], the “CDMF75 IC15” value is 1.6 µM and the IC50 came out at 5.7 µM.

Take `[2H]C([2H])([2H])c1nc(-c2ccc3c(c2)CC[C@H]3NC(=O)C(F)F)no1` [Compound 442, (R)-2,2-difluoro-N-(5-(5-(methyl-d3)-1,2,4-oxadiazol-3-yl)-2,3-dihydro-1H-inden-1-yl)acetamide]: the “CDMF75 IC15” value is 2.5 µM and the IC50 was determined as 12.6 µM.

For `CCc1nc(-c2ccc3c(c2)CC[C@H]3NC(=O)[C@H]2CCC(=O)N2)no1` [Compound 335, (R)-N-((R)-5-(5-ethyl-1,2,4-oxadiazol-3-yl)-2,3-dihydro-1H-inden-1-yl)-5-oxopyrrolidine-2-carboxamide], the “CDMF75 IC15” value was found to be 19.1 µM and the IC50 was greater than 39.2 µM.

Consider `Cc1nc(-c2ccc3c(c2)OC[C@H]3NC(=O)c2cccc([C@@H](C)O)c2)no1` [Compound 735, 3-((R)-1-hydroxyethyl)-N-((S)-6-(5-methyl-1,2,4-oxadiazol-3-yl)-2,3-dihydrobenzofuran-3-yl)benzamide], for which the “CDMF75 IC15” value was determined as 1.6 µM and the IC50 is 8.5 µM.

As to `[2H]C([2H])([2H])c1noc(-c2ccc3c(c2)OC[C@H]3NC(=O)c2cnn(C)c2C)n1` [Compound 341, (S)-1,5-dimethyl-N-(6-(3-(methyl-d3)-1,2,4-oxadiazol-5-yl)-2,3-dihydrobenzofuran-3-yl)-1H-pyrazole-4-carboxamide], the “CDMF75 IC15” value is 1.9 µM and the IC50 amounted to 7.3 µM.

As to `O=C1C[C@@H](C(=O)N[C@@H]2CCc3cc(-c4noc(C5CC5)n4)ccc32)N1` [Compound 316, (S)-N-((R)-5-(5-cyclopropyl-1,2,4-oxadiazol-3-yl)-2,3-dihydro-1H-inden-1-yl)-4-oxoazetidine-2-carboxamide], the “CDMF75 IC15” value was 15.6 µM and the IC50 is greater than 39.2 µM.

In the case of `CCc1nc(-c2ccc3c(c2)OC[C@H]3NC(=O)N(C)CCO)no1` [Compound 746, (S)-3-(6-(5-ethyl-1,2,4-oxadiazol-3-yl)-2,3-dihydrobenzofuran-3-yl)-1-(2-hydroxyethyl)-1-methylurea], the “CDMF75 IC15” value turned out to be 4.6 µM and the concentration for half-maximal inhibition (IC50) is 21.3 µM.

Take `CCc1nc(-c2ccc3c(c2)OC[C@H]3NC(=O)c2ocnc2C)no1` [Compound 455, (S)-N-(6-(5-ethyl-1,2,4-oxadiazol-3-yl)-2,3-dihydrobenzofuran-3-yl)-4-methyloxazole-5-carboxamide]: the “CDMF75 IC15” value stood at 0.2 µM and the IC50 worked out at 0.7 µM.
